Results published in patent US20090105293A1, “USE OF THIENOPYRIDONE DERIVATIVES AS AMPK ACTIVATORS AND PHARMACEUTICAL COMPOSITIONS CONTAINING THEM” (priority 2005, published 2009).

Columns and labels:
ob/ob and db/db mice = settings: 8 day administration; both ob/ob and db/db mice; cited from earlier work
[1] = tested on: Human recombinant AMPK enzyme; assay: AMPK screening assay, Delfia technology; assay type: biochemical; settings: 50 mM Hepes buffer pH 7.4, 125 μM ATP, AMARAA peptide substrate, 30 min room temperature, activator concentration not given
Description: (§1) Human recombinant AMPK enzyme was expressed in E. Coli and was reactivated in vitro by LKB1 prior to enzyme activity determination.
(§2) AMPK enzyme activities were assayed by using 2 fluorescent based technologies (AlphaScreen/Delfia) and were carried out in microtiter plates (containing 25 mM Tris/HCl buffer, pH 7.5 with 100 μM ATP/50 mM Hepes buffer, pH 7.4 with 125 μM ATP respectively) in the presence of a synthetic peptide substrate (AMARAASAAALARRR, the “AMARAA” peptide) and activators in serial dilutions. Reactions were initiated by the addition of AMPK (50-100 ng). Following mixing, the plates were incubated for 30 min at room temperature. Enzyme activity was assayed by using an anti-phosphoserine antibody to measure the quantity of phosphate incorporated into the AMARAA. Activity is expressed in % of control (basal activity): […]

[2] = tested on: Human recombinant AMPK enzyme; assay: AMPK screening assay, AlphaScreen technology; assay type: biochemical; settings: 25 mM Tris/HCl buffer pH 7.5, 100 μM ATP, AMARAA peptide substrate, 30 min room temperature, activator concentration not given
Description: as §1, §2

| SMILES | reduction of blood glucose (ob/ob and db/db mice) [%] | Delfia: AMPK activity expressed in % of control (basal activity) [1] | α-Screen: AMPK activity expressed in % of control (basal activity) [2] |
| --- | --- | --- | --- |
| NC(=O)c1ncn([C@@H]2O[C@H](CO)[C@@H](O)[C@H]2O)c1N [AICAR] | 35 | – | – |
| Cc1sc2[nH]c(=O)c(-c3ccccc3)c(O)c2c1C [Compound 200, 4-Hydroxy-2,3-dimethyl-5-phenyl-7H-thieno[2,3-b]pyridin-6-one] | – | 232 % of control | 154 % of control |
| CCc1cc2c(O)c(-c3ccccc3)c(=O)[nH]c2s1 [Compound 201, 2-Ethyl-4-hydroxy-5-phenyl-7H-thieno[2,3-b]pyridin-6-one] | – | 219 % of control | 150 % of control |
| Cc1c(Br)sc2[nH]c(=O)c(-c3ccccc3)c(O)c12 [Compound 202, 2-Bromo-4-hydroxy-3-methyl-5-phenyl-7H-thieno[2,3-b]pyridin-6-one] | – | 313 % of control | 322 % of control |
| O=c1[nH]c2sc(Br)cc2c(O)c1-c1ccccc1 [Compound 203, 2-Bromo-4-hydroxy-5-phenyl-7H-thieno[2,3-b]pyridin-6-one] | – | 271 % of control | 286 % of control |
| CC(C)c1c(Cl)sc2[nH]c(=O)c(-c3ccccc3)c(O)c12 [Compound 204, 2-Chloro-4-hydroxy-3-isopropyl-5-phenyl-7H-thieno[2,3-b]pyridin-6-one] | – | 233 % of control | 181 % of control |
| O=c1[nH]c2sc(Cl)c(C3CC3)c2c(O)c1-c1cccc(Oc2ccccc2)c1 [Compound 205, 2-chloro-3-cyclopropyl-4-hydroxy-5-(3-phenoxy-phenyl)-7H-thieno[2,3-b]pyridine-6-one] | – | 151 % of control | 166 % of control |
| CCC(C)c1c(Cl)sc2[nH]c(=O)c(-c3ccccc3)c(O)c12 (centres unmarked) [Compound 206] | – | 164 % of control | 269 % of control |
| CC(C)c1csc2[nH]c(=O)c(-c3ccccc3)c(O)c12 [Compound 207, 4-Hydroxy-3-isopropyl-5-phenyl-7H-thieno[2,3-b]pyridin-6-one] | – | 169 % of control | 131 % of control |
| O=c1[nH]c2scc(C3CC3)c2c(O)c1-c1ccccc1 [Compound 208, 3-Cyclopropyl-4-hydroxy-5-phenyl-7H-thieno[2,3-b]pyridin-6-one] | – | 163 % of control | 154 % of control |
| CCC(C)c1csc2[nH]c(=O)c(-c3ccccc3)c(O)c12 (centres unmarked) [Compound 209] | – | 201 % of control | 156 % of control |
| O=c1[nH]c2sc3c(c2c(O)c1-c1ccccc1)CCCC3 [Compound 210, 4-Hydroxy-3-phenyl-5,6,7,8-tetrahydro-1-benzothieno[2,3-b]pyridin-2(1H)-one] | – | 286 % of control | 176 % of control |
